Measured values reported in the kinase profiling compilation of Christmann-Franck et al. (2016).

Columns and labels:
Experiment in all cases: KINOMEscan competition binding
Conditions in all cases: compound 10.0 µM
[1] = test system: ABL1 (human), P00519 [E255K]
[2] = test system: ABL1 (human), P00519 [F317L]
[3] = target: ACVR2B (human) (UniProt Q13705)
[4] = target: AKT1 (human) (UniProt P31749)
[5] = target: AXL (human) (UniProt P30530)
[6] = target: CDK17 (human) (UniProt Q00537)
[7] = target: CDK19 (human) (UniProt Q9BWU1)
Sequence of CDK19 (human) (Q9BWU1 whole entry, looked up): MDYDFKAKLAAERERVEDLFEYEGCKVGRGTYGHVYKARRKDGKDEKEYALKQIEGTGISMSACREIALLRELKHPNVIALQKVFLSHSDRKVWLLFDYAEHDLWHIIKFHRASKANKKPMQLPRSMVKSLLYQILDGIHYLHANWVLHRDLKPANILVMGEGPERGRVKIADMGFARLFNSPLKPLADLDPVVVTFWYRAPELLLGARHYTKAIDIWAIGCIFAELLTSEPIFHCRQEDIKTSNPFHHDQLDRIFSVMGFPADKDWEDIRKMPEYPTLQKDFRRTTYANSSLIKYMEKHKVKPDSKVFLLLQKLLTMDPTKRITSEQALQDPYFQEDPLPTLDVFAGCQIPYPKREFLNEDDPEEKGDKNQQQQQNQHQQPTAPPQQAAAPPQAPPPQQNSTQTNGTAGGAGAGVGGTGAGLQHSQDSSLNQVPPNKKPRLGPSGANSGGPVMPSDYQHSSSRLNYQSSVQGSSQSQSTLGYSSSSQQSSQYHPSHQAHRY

[8] = target: CDK9 (human) (UniProt P50750)
[9] = target: CSF1R (human) (UniProt P07333)
[10] = target: CSNK1E (human) (UniProt P49674)
Sequence of CSNK1E (human) (P49674 whole entry, looked up): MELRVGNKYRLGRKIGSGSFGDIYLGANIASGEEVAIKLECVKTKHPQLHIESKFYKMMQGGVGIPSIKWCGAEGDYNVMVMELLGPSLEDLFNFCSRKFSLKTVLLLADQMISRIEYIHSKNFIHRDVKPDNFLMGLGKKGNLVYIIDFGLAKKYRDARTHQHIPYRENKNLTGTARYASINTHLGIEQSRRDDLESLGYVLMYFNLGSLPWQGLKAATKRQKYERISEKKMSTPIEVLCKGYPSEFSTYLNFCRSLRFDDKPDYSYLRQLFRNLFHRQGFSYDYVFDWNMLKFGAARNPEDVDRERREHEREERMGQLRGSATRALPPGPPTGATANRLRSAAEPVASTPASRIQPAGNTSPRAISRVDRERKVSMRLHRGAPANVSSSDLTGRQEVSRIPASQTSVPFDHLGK

[11] = target: CSNK2A1 (human) (UniProt P68400)
Sequence of CSNK2A1 (human) (P68400 whole entry, looked up): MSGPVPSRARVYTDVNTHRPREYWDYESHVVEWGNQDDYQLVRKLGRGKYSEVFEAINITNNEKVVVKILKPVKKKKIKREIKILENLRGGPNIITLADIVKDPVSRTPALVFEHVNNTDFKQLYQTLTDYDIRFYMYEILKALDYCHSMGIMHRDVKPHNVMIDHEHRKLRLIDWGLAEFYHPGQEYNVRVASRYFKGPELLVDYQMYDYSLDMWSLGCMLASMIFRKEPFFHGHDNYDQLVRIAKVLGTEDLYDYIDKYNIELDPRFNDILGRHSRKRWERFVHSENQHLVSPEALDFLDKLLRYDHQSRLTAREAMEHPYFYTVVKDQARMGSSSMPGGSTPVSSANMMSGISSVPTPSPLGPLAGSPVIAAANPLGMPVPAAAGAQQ

[12] = target: CSNK2A2 (human) (UniProt P19784)
Sequence of CSNK2A2 (human) (P19784 whole entry, looked up): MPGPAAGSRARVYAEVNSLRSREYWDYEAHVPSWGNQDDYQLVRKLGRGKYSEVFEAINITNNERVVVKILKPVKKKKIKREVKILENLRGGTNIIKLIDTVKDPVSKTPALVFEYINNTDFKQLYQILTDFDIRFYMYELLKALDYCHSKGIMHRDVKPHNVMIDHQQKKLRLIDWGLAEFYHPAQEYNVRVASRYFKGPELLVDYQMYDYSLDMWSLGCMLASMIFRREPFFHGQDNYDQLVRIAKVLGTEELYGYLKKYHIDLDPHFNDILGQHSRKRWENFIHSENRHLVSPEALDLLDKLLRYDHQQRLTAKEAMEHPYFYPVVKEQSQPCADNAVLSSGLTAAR

[13] = target: DYRK1A (human) (UniProt Q13627)
[14] = target: EPHB2 (human) (UniProt P29323)
[15] = target: FGR (human) (UniProt P09769)
[16] = target: GRK1 (human) (UniProt Q15835)
[17] = target: GSK3A (human) (UniProt P49840)
[18] = test system: KIT (human), P10721 [L576P]
[19] = target: MAPK1 (human) (UniProt P28482)
[20] = target: MAPK14 (human) (UniProt Q16539)
[21] = target: MAPK15 (human) (UniProt Q8TD08)
[22] = target: MAPK6 (human) (UniProt Q16659)
[23] = target: MAPKAPK5 (human) (UniProt Q8IW41)
[24] = target: MARK3 (human) (UniProt P27448)
[25] = target: MLTK (human) (UniProt Q9NYL2)
Sequence of MLTK (human) (Q9NYL2 whole entry, looked up): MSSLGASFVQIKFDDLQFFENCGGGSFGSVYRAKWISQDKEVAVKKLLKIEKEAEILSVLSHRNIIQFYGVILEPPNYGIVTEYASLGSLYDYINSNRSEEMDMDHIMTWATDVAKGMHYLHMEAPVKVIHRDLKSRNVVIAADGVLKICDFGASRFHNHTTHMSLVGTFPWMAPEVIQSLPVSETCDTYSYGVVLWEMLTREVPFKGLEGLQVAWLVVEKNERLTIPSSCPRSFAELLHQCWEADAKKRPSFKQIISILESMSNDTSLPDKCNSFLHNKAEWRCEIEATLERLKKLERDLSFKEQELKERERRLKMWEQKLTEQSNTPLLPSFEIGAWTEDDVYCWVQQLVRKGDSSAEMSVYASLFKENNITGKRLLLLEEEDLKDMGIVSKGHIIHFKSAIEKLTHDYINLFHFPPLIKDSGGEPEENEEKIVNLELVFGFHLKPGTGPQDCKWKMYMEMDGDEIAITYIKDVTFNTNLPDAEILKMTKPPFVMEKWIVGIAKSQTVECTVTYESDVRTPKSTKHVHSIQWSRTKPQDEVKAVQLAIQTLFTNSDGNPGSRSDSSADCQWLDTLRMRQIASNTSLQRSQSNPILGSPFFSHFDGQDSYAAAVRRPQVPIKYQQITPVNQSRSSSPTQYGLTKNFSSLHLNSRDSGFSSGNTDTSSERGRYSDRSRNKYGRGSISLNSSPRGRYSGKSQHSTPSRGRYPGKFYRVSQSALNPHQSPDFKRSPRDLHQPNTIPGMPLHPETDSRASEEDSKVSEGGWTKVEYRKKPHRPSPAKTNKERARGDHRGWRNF

[26] = target: NEK6 (human) (UniProt Q9HC98)
[27] = target: NLK (human) (UniProt Q9UBE8)
[28] = target: PAK2 (human) (UniProt Q13177)
[29] = target: PAK4 (human) (UniProt O96013)
[30] = target: PIK3C2B (human) (UniProt O00750)
Sequence of PIK3C2B (human) (O00750 whole entry, looked up): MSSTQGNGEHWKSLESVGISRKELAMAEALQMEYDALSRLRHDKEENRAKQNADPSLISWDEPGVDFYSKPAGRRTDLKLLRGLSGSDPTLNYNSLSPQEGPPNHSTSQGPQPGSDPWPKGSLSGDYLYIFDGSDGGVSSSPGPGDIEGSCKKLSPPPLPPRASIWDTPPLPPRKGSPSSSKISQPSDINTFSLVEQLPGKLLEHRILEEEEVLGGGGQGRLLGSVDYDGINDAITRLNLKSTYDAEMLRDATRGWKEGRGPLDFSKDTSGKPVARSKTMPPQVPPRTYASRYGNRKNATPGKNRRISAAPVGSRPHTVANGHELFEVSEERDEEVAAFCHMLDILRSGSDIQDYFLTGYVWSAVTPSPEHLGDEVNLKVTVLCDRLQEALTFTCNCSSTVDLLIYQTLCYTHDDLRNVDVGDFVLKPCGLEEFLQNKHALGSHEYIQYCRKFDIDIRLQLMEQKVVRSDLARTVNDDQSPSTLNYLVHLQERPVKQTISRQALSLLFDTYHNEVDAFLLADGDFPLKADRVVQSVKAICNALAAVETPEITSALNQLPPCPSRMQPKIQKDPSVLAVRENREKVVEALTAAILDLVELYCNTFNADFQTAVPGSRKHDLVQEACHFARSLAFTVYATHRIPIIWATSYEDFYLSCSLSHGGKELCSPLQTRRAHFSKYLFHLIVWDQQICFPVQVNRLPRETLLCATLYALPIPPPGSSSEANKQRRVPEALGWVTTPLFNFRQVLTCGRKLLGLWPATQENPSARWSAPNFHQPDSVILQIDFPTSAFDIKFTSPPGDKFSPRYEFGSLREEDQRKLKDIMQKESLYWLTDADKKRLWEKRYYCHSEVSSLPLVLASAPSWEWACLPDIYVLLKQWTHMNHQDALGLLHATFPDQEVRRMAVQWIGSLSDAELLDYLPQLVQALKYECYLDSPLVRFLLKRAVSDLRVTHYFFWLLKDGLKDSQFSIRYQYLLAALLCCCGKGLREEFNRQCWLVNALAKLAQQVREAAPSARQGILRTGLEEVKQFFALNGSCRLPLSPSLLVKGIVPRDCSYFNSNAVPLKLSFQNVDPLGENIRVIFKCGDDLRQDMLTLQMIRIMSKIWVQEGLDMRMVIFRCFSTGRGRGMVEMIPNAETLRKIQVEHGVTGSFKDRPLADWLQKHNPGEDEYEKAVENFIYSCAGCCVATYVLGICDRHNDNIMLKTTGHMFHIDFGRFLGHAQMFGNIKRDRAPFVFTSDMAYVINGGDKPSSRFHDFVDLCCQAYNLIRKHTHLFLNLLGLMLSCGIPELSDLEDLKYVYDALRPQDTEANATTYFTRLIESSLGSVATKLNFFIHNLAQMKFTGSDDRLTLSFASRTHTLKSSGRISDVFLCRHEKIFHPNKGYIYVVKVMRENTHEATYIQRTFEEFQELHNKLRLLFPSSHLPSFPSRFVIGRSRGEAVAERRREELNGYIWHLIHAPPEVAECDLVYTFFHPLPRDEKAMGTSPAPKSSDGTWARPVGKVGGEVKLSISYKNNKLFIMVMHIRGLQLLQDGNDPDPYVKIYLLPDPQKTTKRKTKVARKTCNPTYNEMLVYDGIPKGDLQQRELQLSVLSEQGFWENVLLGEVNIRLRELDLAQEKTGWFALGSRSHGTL

[31] = test system: PIK3CA (human), P42336 [E542K]
[32] = target: PIM1 (human) (UniProt P11309)
[33] = target: PIM3 (human) (UniProt Q86V86)
[34] = target: PRKAA2 (human) (UniProt P54646)
[35] = target: PRKCE (human) (UniProt Q02156)
[36] = target: PTK6 (human) (UniProt Q13882)
[37] = target: SRPK3 (human) (UniProt Q9UPE1)
Sequence of SRPK3 (human) (Q9UPE1 whole entry, looked up): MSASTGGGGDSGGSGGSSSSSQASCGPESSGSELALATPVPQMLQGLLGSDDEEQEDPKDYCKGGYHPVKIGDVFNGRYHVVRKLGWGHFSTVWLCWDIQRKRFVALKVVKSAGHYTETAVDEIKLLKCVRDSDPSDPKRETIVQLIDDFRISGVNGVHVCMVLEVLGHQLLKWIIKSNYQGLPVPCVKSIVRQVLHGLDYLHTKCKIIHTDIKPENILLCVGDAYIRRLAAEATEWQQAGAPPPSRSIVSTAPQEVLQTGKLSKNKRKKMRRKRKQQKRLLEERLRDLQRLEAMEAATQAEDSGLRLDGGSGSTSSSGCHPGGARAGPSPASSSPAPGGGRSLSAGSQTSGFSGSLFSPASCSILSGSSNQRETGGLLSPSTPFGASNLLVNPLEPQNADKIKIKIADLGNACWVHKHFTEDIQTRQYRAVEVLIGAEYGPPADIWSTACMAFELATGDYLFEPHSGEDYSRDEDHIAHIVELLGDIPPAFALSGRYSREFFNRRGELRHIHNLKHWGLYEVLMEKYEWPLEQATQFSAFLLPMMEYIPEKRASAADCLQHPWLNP

[38] = target: STK32B (human) (UniProt Q9NY57)
[39] = target: TAOK3 (human) (UniProt Q9H2K8)
[40] = target: TNK1 (human) (UniProt Q13470)
[41] = target: YES1 (human) (UniProt P07947)
[42] = target: ZAP70 (human) (UniProt P43403)

kinase still bound, per cent of control [1]: 100%
kinase still bound, per cent of control [2]: 100%
kinase still bound, per cent of control [3]: 100%
kinase still bound, per cent of control [4]: 100%
kinase still bound, per cent of control [5]: 100%
kinase still bound, per cent of control [6]: 12%
kinase still bound, per cent of control [7]: 100%
kinase still bound, per cent of control [8]: 92%
kinase still bound, per cent of control [9]: 87%
kinase still bound, per cent of control [10]: 49%
kinase still bound, per cent of control [11]: 35%
kinase still bound, per cent of control [12]: 99%
kinase still bound, per cent of control [13]: 2.3%
kinase still bound, per cent of control [14]: 100%
kinase still bound, per cent of control [15]: 100%
kinase still bound, per cent of control [16]: 83%
kinase still bound, per cent of control [17]: 0%
kinase still bound, per cent of control [18]: 72%
kinase still bound, per cent of control [19]: 100%
kinase still bound, per cent of control [20]: 72%
kinase still bound, per cent of control [22]: 100%
kinase still bound, per cent of control [23]: 100%
kinase still bound, per cent of control [24]: 86%
kinase still bound, per cent of control [25]: 93%
kinase still bound, per cent of control [26]: 91%
kinase still bound, per cent of control [27]: 92%
kinase still bound, per cent of control [28]: 61%
kinase still bound, per cent of control [29]: 82%
kinase still bound, per cent of control [30]: 100%
kinase still bound, per cent of control [31]: 100%
kinase still bound, per cent of control [32]: 22%
kinase still bound, per cent of control [33]: 18%
kinase still bound, per cent of control [34]: 52%
kinase still bound, per cent of control [35]: 94%
kinase still bound, per cent of control [36]: 100%
kinase still bound, per cent of control [37]: 100%
kinase still bound, per cent of control [38]: 100%
kinase still bound, per cent of control [39]: 92%
kinase still bound, per cent of control [40]: 88%
kinase still bound, per cent of control [41]: 100%
kinase still bound, per cent of control [42]: 100%
Compound: Cn1cc(C2=C(c3ccc(Cl)cc3Cl)C(=O)NC2=O)c2ccccc21
kinase still bound, per cent of control [21]: 1.7%
